Patent publication US4714699A, “2-tolylmorpholine derivatives and pharmaceutical compositions” (Societe Anonyme Dite: Laboratoire L. Lafon, priority 1983, dated 1987)
“Also recorded” adds a separate entry of the source.

Assays:
[1] = neuropsychopharmacological study, overall findings; assay type: in vivo, mice, rats; conditions: for variation of sedative effects with dose: in vivo; for antidepressant effects: strong doses; for sedative effects: weak doses where stated
Procedure: (§1) In the following tests, CRL 40 875, in solution in distilled water, was administered intraperitoneally in a volume of 20 ml/kg to male mice and 5 ml/kg to male rats.
(§2) In the following tests, CRL 40 897, in solution in distilled water (pH 4), was administered intraperitoneally in a volume of 20 ml/kg to male mice and in a volume of 5 ml/kg to male rats, the procedures being those given above for CRL 40 875.
(§3) In the tests undertaken, CRL 40 912, in solution in distilled water (pH 4.5), was administered intraperitoneally in a volume of 20 ml/kg to male mice and in a volume of 5 ml/kg to male rats, the procedures being those given above for CRL 40 875.
(§4) The toxicological and neuropsychopharmacological studies undertaken in accordance with the procedures described above for CRL 40 875 enabled the following observations to be made: […]

[2] = asphyxiant anoxia (gallamine triiodoethylate); assay type: in vivo, male mice; conditions: i.p., mice
Procedure: as §1
Groups of 20 mice receive CRL 40 875 half an hour before the intraperitoneal administration of 32 mg/kg of gallamine triidoethylate (which is a reference curarizing agent).
as §2, §3

[3] = interaction with apomorphine in mice; assay type: in vivo, male mice
Procedure: as §1
Groups of 6 mice receive CRL 40 875 0.5 hour before the subcutaneous injection of 1 or 16 mg/kg of apomorphine.
as §2, §3

[4] = interaction with oxotremorine; assay type: in vivo, male mice
Procedure: as §1
CRL 40 875 is administered to groups of 6 mice half an hour before the intraperitoneal injection of 0.5 mg/kg of oxotremorine.
as §2, §3

[5] = interaction with apomorphine in rats; assay type: in vivo, male rats; conditions: i.p., 0.5 mg/kg apomorphine
Procedure: as §1
CRL 40 875 is administered to groups of 6 rats 0.5 hour before the subcutaneous injection of 0.5 mg/kg of apomorphine.
as §2, §3

[6] = clinical trials, treatment of depressions; assay type: in vivo; conditions: man
From the text: In clinical trials, good results were obtained on man with CRL 40 875 (Example 1), CRL 40 912 (Example 2) and CRL 40 897 (Example 3) in the treatment of depressions.

[7] = action on the spontaneous motility; assay type: in vivo, male mice; conditions: mice
Procedure: as §1
Half an hour after they have received CRL 40 875, the mice (6 per dose, 12 control animals) are placed in an actimeter, where their motility is recorded for 30 minutes.
as §2

[8] = motility reduced by habituation to the enclosure; assay type: in vivo, male mice; conditions: i.p.
Procedure: as §1
After they have stayed in the actimeters for 18 hours, the mice (6 per dose, 12 control animals) receive CRL 40 875. They are immediately returned to their respective enclosures and, half an hour later, their motility is recorded for 30 minutes.
as §2, §3

[9] = overall behavior and reactivities in mice; assay type: in vivo, male mice
Procedure: as §1
Groups of three mice are observed before and then 15 minutes, 30 minutes, 1 hour, 2 hours, 3 hours and 24 hours after the administration of CRL 40 875.
as §2, §4

[10] = interaction with amphetamine; assay type: in vivo, male rats; conditions: i.p.; 2 mg/kg amphetamine; rats
Procedure: as §1, §2, §3

[11] = pretoxicity (LD-O, maximum non-lethal dose); assay type: in vivo, male mice
Procedure: as §1, §2, §3, §4

[12] = tested on: α-adrenergic; experiment: α-adrenergic stimulation; conditions: in vivo
[13] = electric shock; assay type: in vivo, male mice; conditions: i.p., mice
Procedure: as §1
(§5) The test is performed on groups of 10 mice half an hour after the administration of CRL 40 875.
as §2

[14] = motility reduced by hypoxic aggression; assay type: in vivo, male mice; conditions: i.p.
Procedure: as §1
Half an hour after they have received CRL 40 875, the mice (10 per dose, 20 control animals) are subjected to acute hypobaric anoxia [pressure reduction of 600 mm Hg (i.e. about 8×10^4 pascals) in 90 seconds; release of vacuum in 45 seconds] and are then placed in an actimeter, where their motility is recorded for 10 minutes.
as §2

[15] = interaction with reserpine; assay type: in vivo, male mice; conditions: i.p.
Procedure: as §1
Four hours after the intraperitoneal injection of 2.5 mg/kg of reserpine, groups of 6 mice receive CRL 40 875. The effects on the temperature and ptosis are observed.
as §2, §3

[16] = four plate test; assay type: in vivo, male mice; conditions: i.p., mice
Procedure: as §1, §5, §2

[17] = traction test; assay type: in vivo, male mice; conditions: i.p., mice
Procedure: as §1, §5, §2

[18] = action on the intergroup aggressiveness; assay type: in vivo, male mice; conditions: i.p., mice
Procedure: as §1
After they have stayed for 3 weeks in the two halves of a cage divided by an opaque partition, groups of 3 mice receive CRL 40 875. Half an hour later, the two groups from the same cage are brought together by removal of the partition, and the number of fights which occur in 10 minutes is noted.
as §2, §3

[19] = cardiovascular study in dogs; assay type: in vivo
[20] = cardiovascular study in rats; assay type: in vivo; conditions: wake rats
[21] = high dose (64 mg/kg) i.p., mice
[22] = anesthetized dogs, intraduodenal (CRL 40 903: then intravenous)
[23] = intraduodenal, anesthetized dogs

With Cc1ccc(C2CN(C)CCO2)cc1.Cl (stereo not drawn) [CRL 40 897, 2-p-tolyl-4-methylmorpholine hydrochloride] the “variation of sedative effects with dose” value [1] was “increase continuously with the dose administered, up to a maximum value, and then decrease continuously and progressively as the dose increases”, the antidepressant effects [1] was “antidepressants at strong doses” and the sedative effects [1] was “sedative effects (hypomotility, hypothermia, reduction of intergroup aggressiveness”. For the same molecule, the “time taken for convulsions and death to occur following asphyxiant anoxia” value [2] was “delays the time taken for convulsions and death to occur”, the minimal effective dose ([3]; Mus musculus, ip, mice, read-out: dose as from which hypothermic effect is present) was no less than 4 mg/kg and the “effect on the temperature drop induced by apomorphine” value [3, 21] was “partially counteracts the temperature drop induced by apomorphine”. The “effect on righting behavior and stereotypies” value ([3]; i.p., apomorphine, mice) was “without modifying the righting behavior and the stereotypies”, the minimal effective dose ([4]; Mus musculus, ip, mice, read-out: dose as from which hypothermic effect is distinct) was no less than 4 mg/kg and the “effect on the temperature drop induced by oxotremorine” value [4, 21] was “partially counteracts the temperature drop induced by oxotremorine”. For the same molecule, the “effect on signs of peripheral cholinergic stimulation induced by oxotremorine” value ([4]; i.p., mice) was “leaves unchanged the signs of peripheral cholinergic stimulation induced by oxotremorine”, the “effect on the trembling due to oxotremorine” value ([4]; i.p., mice) was “not influenced” and the “effect on stereotypies induced by apomorphine” value [5] was “does not modify the stereotypies induced by apomorphine”. For the same molecule, the “results in the treatment of depressions” value [6] was “good results”, the minimal effective dose ([7]; Mus musculus, ip, read-out: dose as from which motility is reduced) was no less than 4 mg/kg and the “effect on spontaneous motor activity” value ([7]; as from 4 mg/kg i.p.) was “depresses the spontaneous motor activity of mice”. The “resumption in the activity of mice accustomed to their enclosure” value [8] was “does not cause a resumption in the activity of mice accustomed to their enclosure”, the duration of hypothermia ([9]; 4 mg/kg i.p., mice) was 0.5 h and the “hypothermia (temperature change)” value ([9]; 4 mg/kg i.p., mice) was -2.2 °C. The duration of hypothermia ([9]; 16 mg/kg i.p., mice) was 0.5 h, the “hypothermia (temperature change)” value ([9]; 16 mg/kg i.p., mice) was -2.4 °C and the “depressed respiration, animals affected” value ([9]; 64 mg/kg i.p., mice) was 2/3. For the same molecule, the “duration of depressed respiration” value ([9]; 64 mg/kg i.p., mice) was 3 h, the duration of sedation ([9]; 64 mg/kg i.p., mice) was 3 h and the “duration of significant salivation” value ([9]; 64 mg/kg i.p., mice) was 1 h. For the same molecule, the “hypothermia (temperature change)” value ([9]; 64 mg/kg i.p., mice) was -2.2 °C, the “sedation, animals affected” value ([9]; 64 mg/kg i.p., mice) was 3 out of 3 and the “significant salivation, animals affected” value ([9]; 64 mg/kg i.p., mice) was 3/3. For the same molecule, the “effect on stereotypies induced by amphetamine” value [10] was “The increase observed in the other groups merely reflect this anomaly”, the signs of toxicity ([11]; 64 mg/kg i.p., mice) was “dyspnea, sedation” and the “trembling, animals affected” value ([11]; 64 mg/kg i.p., mice) was 1/3. The mortality ([11]; 128 mg/kg i.p., groups of three mice) was “no mortality”, the signs of toxicity ([11]; 128 mg/kg i.p., groups of three mice, hydrochloride) was “dyspnea, trembling; also recorded: sedation” and the “convulsions, animals affected” value ([11]; 128 mg/kg i.p., mice) was 2/3. For the same molecule, the “convulsions, animals affected” value ([11]; 256 mg/kg i.p., mice) was 2/3, the “copious salivation, animals affected” value ([11]; 256 mg/kg i.p., mice) was 1 out of 3 and the “death, animals affected” value ([11]; 256 mg/kg i.p., mice) was 3/3. For the same molecule, the signs of toxicity ([11]; 256 mg/kg i.p., mice) was “dyspnea”, the time to death ([11]; 256 mg/kg i.p., mice) was 10 min and the α-adrenergic stimulant effect [12] was “stimulant effects, especially of the α-adrenergic type”. The “effect on electric shock” value [13] was “does not modify the convulsant and lethal effects of electric shock”, the “motor recovery in mice after reduced-pressure enclosure” value [14] was “does not cause any improvement in the motor recovery” and the “effect on the hypothermia and ptosis induced by reserpine” value ([15]; mice) was “does not modify the hypothermia and ptosis induced by reserpine”. For the same molecule, the “number of punished passes” value [16] was “does not cause an increase in the number of punished passes”, the major motor incapacity [17] was “does not cause major motor incapacity” and the “effect on aggressiveness / number of fights” value [18] was “does not cause a distinct reduction in the number of fights”.

In the case of Cc1ccccc1C1CN(C(C)(C)C)CCO1 (stereo not drawn) [CRL 40 910, 2-o-tolyl-4-tert.-butylmorpholine], the sedative effects [1] is reported as “sedative effects”, the “femoral and vertebral flow rates” value ([19]; 0.5 mg/kg intraduodenally, anesthetized dogs) is reported as “significantly increases the femoral and vertebral flow rates” and the “effect of propanolol on the increase in femoral flow rate” value ([19]; anesthetized dogs, intraduodenal) is reported as “not totally inhibited by propanolol”. The “dose as from which tachycardia appears” value [19, 22] was 1 mg/kg, the “effect on the hypertension induced by noradrenaline” value [19, 22] was “reduces the hypertension induced by noradrenaline” and the “effect on the hypotension / effects of isoprenaline” value [19, 22] was “does not modify the effects of isoprenaline”. The vasodilator property ([19]; dog, in vivo) was “particularly interesting as vasodilators”, the effect on respiration [19, 23] was “stimulates respiration in dogs” and the “rectal and skin temperatures” value [19, 23] was “increase progressively”. The “tachycardia, degree” value [19, 23] was “remains weak”, the venous pressure [19, 23] was “increase progressively, as does the venous pressure” and the “effect of propanolol on the effects on heart beat and vertebral flow rate” value ([19]; propanolol 1 mg/kg intravenously, anesthetized dogs) was “antagonized by propanolol”. For the same molecule, the hypothermia ([9]; 64 mg/kg i.p., male mice) was “moderate hypothermia”, the duration of hypothermia ([9]; 64 mg/kg i.p., mice) was 0.5 h and the “LD-O (maximum non-lethal dose)” value ([11]; intraperitoneally, male mice) was “greater than 128 mg/kg”.

For Cc1cccc(C2CN(C)CCO2)c1.Cl (stereo not drawn) [CRL 40 912, 2-m-tolyl-4-methylmorpholine hydrochloride], the “variation of sedative effects with dose” value [1] was “increase continuously with the dose administered, up to a maximum value, and then decrease continuously and progressively as the dose increases”, the antidepressant effects ([1]; hydrochloride) was “antidepressant at a strong dose; also recorded: antidepressants at strong doses” and the sedative effects ([1]; hydrochloride) was “sedative effects (hypomotility, hypothermia) comparable to those of α-adrenergic blocking substances or to clonidine; also recorded: acts as a sedative at a weak dose; also recorded: sedative effects (hypomotility, hypothermia, reduction of intergroup aggressiveness”. For the same molecule, the “time taken for convulsions and death to occur following asphyxiant anoxia” value [2] was “delay in the time taken for convulsions and death to occur”, the “effect on the hypothermic effects of apomorphine” value ([3]; strong dose, i.p.) was “opposes the hypothermic effects of apomorphine” and the “effect on the temperature drop caused by oxotremorine” value ([4]; strong dose, i.p.) was “opposes the hypothermic effects of apomorphine and oxotremorine”. The bradycardia [20] was “bradycardia is of short duration”, the mean blood pressure [20] was “no action on the mean blood pressure” and the “results in the treatment of depressions” value [6] was “good results”. The “resumption in the activity of mice accustomed to their enclosure” value [8] was “does not cause a resumption in the motor activity of mice accustomed to their enclosure”, the “effect on blood pressure” value ([19]; 1 mg/kg i.p., anesthetized dogs) was “hypertensive agent” and the “effect on hypertensive action” value ([19]; 5 mg/kg i.p., anesthetized dogs) was “this effect decreases”. The “dose as from which bradycardia is caused” value ([19]; i.p., anesthetized dogs) was no less than 5 mg/kg, the “effect on stereotypies induced by amphetamine” value [10] was “does not reduce the intensity of the stereotypies induced by amphetamine” and the α-adrenergic stimulant effect ([12]; hydrochloride) was “effect of the α-stimulant type; also recorded: very distinct peripheral α-adrenergic stimulant action (piloerection, exophthalmos, significant antagonism of the ptosis induced by reserpine); also recorded: stimulant effects, especially of the α-adrenergic type”. For the same molecule, the “effect on the ptosis induced by reserpine” value ([15]; mice) was “significant antagonism of the ptosis induced by reserpine”, the “effect on the hypothermic effects of reserpine” value ([15]; weaker dose) was “opposes those of reserpine” and the “effect on aggressiveness / number of fights” value [18] was “reduction of aggressiveness”.
